Measurements from PMC5312321, “A general strategy to optimize immunogenicity of HLA-B*0702 restricted cryptic peptides from tumor associated antigens: Design of universal neo-antigen like tumor vaccines for HLA-B*0702 positive patients” (Oncotarget, 2016).

Columns and labels:
HLA-B*0702 = target: T1, HLA-B*0702 (Homo sapiens, UniProt P01889); experiment: Measurement of peptide relative affinity to HLA-B*0702 (surface expression on T2-B7 cells); type: cell-based
T1 construct: expressed in transfected cells; host or cells: human T2-B7 cells (T2 transfected with HLA-B*0702)
Procedure: The protocol used has been described previously. Briefly, T2-B7 cells were incubated at 37°C for 16 hours with peptides concentrations ranging from 100 μM to 0.1 μM (100 μM, 10 μM, 1 μM and 0.1μM), and then stained with ME-1 monoclonal antibody (mAb) to quantify the surface expression of HLA-B*0702. For each peptide concentration, the HLA-B*0702 specific staining was calculated as the percentage of staining obtained with 100 μM of the reference peptide CMV265–274 (R10V; […], SEQ ID NO: 9). The relative affinity (RA) was determined as: RA = (Concentration of each peptide that induces 20% of HLA-B*0702-expression/Concentration of the reference R10V peptide that induces 20% of HLA-B*0702 expression). In case of non-binders peptide, RA is not evaluable since the 20% of HLA-B*0702 expression is not reach even with the highest concentration of peptide.

[1] = system: CD8+ T cells from healthy donors; experiment: In vitro induction of specific CTLs from PBMC of healthy HLA-B*0702 donors (IFNγ intracellular staining or ELISPOT); type: cell-based, human; conditions: for immunogenicity in vitro in human PBMC (in words): CD8+ T cells from healthy donors, four stimulations with peptide loaded autologous DC; for Immunogenicity against optimized peptide (number of positive culture/number of total cultures): human healthy donor PBMC stimulated with optimized peptide loaded DC, T2-B7 cells loaded with optimized peptide; for Immunogenicity against native peptide (number of positive culture/number of total cultures): human healthy donor PBMC stimulated with optimized peptide, T2-B7 cells loaded with corresponding native peptide
Procedure: CD8+ T cells from healthy donors were in vitro stimulated with autologous dendritic cells loaded with each optimized cryptic peptide. After four stimulations, proliferating cells were tested for the presence of IFNγ producing CTLs upon stimulation with T2-B7 cells loaded with optimized or native peptides either by intracellular IFNγ staining or by IFNγ ELISPOT assay.
PBMC were collected by leukapheresis from healthy HLA-A*B702 volunteers. Dendritic cells (DC) were produced from adherent cells cultured with 500 IU/ml GM-CSF and 500 IU/ml IL-4, in complete synthetic medium (AIMV) for seven days. On day 7, DCs were pulsed with 10 μM of peptide during 2 hours and CD8^+ cells were purified by negative selection with CD8 Dynabeads Untouched Human CD8. CD8^+ cells (2 × 10^5) + CD8^− cells (6 × 10^4) were stimulated with 3 × 10^4 peptide-pulsed DC in AIMV medium supplemented with 1000 IU/ml IL-6 and 5 IU/ml IL-12 in round-bottomed 96-well plates.
From day 7, cultures were stimulated weekly with peptide-loaded DC in the presence of 20 IU/ml IL-2 and 10 ng/ml IL-7, 1 μg/ml anti-CD40 and 500 IU/ml IFNγ.
After the third stimulation, CD8 cells were maintained in AIMV supplemented with 20 IU/ml IL-2 during 7 days. Cultures were starved overnight with AIMV and then were tested in an intracellular IFNγ and an IFNγ ELISpot assay.
Stimulated T cells (10^5) from each pool were incubated with 2 × 10^5 T2 cells loaded with stimulating peptide in the presence of 20 μg/ml Brefeldin-A (Sigma, Oakville, Canada). Six hours later they were washed, stained with r-phycoerythrin-conjugated anti-CD8 antibody (Caltag Laboratories, Burlingame, CA, USA) in PBS for 25 min at 4°C, washed again, and fixed with 4% PFA. The cells were then permeabilized with PBS, 0.5% BSA, 0.2% saponin (Sigma, Oakville, Canada), and labelled with an allophycocyanin-conjugated anti-IFNγ mAb (PharMingen, Mississauga, Canada) for 25 min at 4°C before analysis with a FACSCalibur® flow cytometer.
Stimulated T cells were splited in four pools and IFNγ producing T cells was quantified in each pool by ELISpot using the Diaclone Kit Human IFNγ ELISpot (Besançon, France) according to manufacturer's recommendations. 250 000 cells were distributed per well and tested for the recognition of 10 μM of either the native or optimized peptide. Positive control was Concanavalin A and negative control was medium alone or an irrelevant peptide. All conditions were tested in sixplicates.

[2] = system: HLA-B*0702 transgenic mice; experiment: Vaccination of HLA-B*0702 transgenic mice; specific CTLs detected by cytotoxicity or IFNγ ELISPOT; type: in vivo, mouse; conditions: for cross recognition of the native peptide by CTLs induced by the optimized peptide in mice (in words): HLA-B*0702 transgenic mice, target cells loaded with native peptide; for Immunogenicity against optimized peptide (responding mice/vaccinated mice): cytotoxicity or IFNγ ELISPOT against target cells loaded with the optimized peptide; for immunogenicity in HLA-B*0702 transgenic mice (in words): specific CTL induction after vaccination, cytotoxicity (ratio 30/1) or IFNγ ELISpot
Procedure: The HLA-B7 H-2 class-I knockout mice were previously described.
Mice were injected subcutaneously with 100 μg of peptide emulsified in Incomplete Freund's Adjuvant (IFA) in the presence of 150 μg of the I-A^b restricted HBVcore128 T helper epitope ([…]) twice at two weeks interval.
A particular protocol was applied for MAGE-A 274L9, with two injections of this peptide at two weeks interval and 15 days later one injection with each one of the native peptide.
On day 6 of culture the bulk responder populations were tested for specific cytotoxicity. […] Percentage of specific lysis was determined as: % Lysis = (Experimental Release-Spontaneous Release) / (Maximal Release-Spontaneous Release) × 100. Spontaneous release is obtained using medium only, maximum release with HCl 0.1 M.
Seven days after the last vaccination, spleens were removed and T cells were isolated by Ficoll centrifugation and tested ex vivo for the recognition of 10 μM of either the native or optimized peptide. IFNγ producing T cells were quantified by ELISpot using the Diaclone Kit Murine IFNγ ELISpot (Besançon, France) according to manufacturer's recommendations. 250 000 spleen T cells were distributed per well and tested for the recognition of 10 μM of either the native or optimized peptide. Positive control was Concanavalin A and negative control was medium alone. All conditions were tested in sixplicates.

[3] = mice vaccinated twice with the optimized peptide

Row | Sequence | RA (Relative Affinity) (HLA-B*0702; 37°C 16 hours, peptide 100 μM to 0.1 μM, ME-1 mAb staining, RA = concentration inducing 20% of HLA-B*0702 expression / that of reference R10V, mean ± SD, at least three experiments, ≥ 10 = 10 or not measurable, SD) | binding to / affinity for HLA-B*0702 (in words) (HLA-B*0702; relative to reference peptide R10V) | immunogenicity in vitro in human PBMC (in words) [1] | Immunogenicity against optimized peptide (number of positive culture/number of total cultures) [1] | Immunogenicity against native peptide (number of positive culture/number of total cultures) [1] | cross recognition of the native peptide by CTLs induced by the optimized peptide in mice (in words) [2] | (Number of spots – background)/10^6 cells ([2]; IFNγ ELISpot, Figure 3, value printed in the picture, mouse vaccinated twice at two weeks interval, statistically significant (*)) | Immunogenicity against optimized peptide (responding mice/vaccinated mice) [2, 3] | Immunogenicity against native peptide MAGE-A1_267 (responding mice/vaccinated mice) ([2]; mice vaccinated with optimized peptide, target cells loaded with MAGE-A1_267) | Immunogenicity against native peptide MAGE-A2_274 (responding mice/vaccinated mice) ([2]; mice vaccinated with optimized peptide, target cells loaded with MAGE-A2_274) | Immunogenicity against native peptide MAGE-A3_274 (responding mice/vaccinated mice) ([2]; mice vaccinated with optimized peptide, target cells loaded with MAGE-A3_274) | immunogenicity in HLA-B*0702 transgenic mice (in words) [2] | cross recognition of native peptide by human CTLs induced by the optimized peptide (in words) ([1]; T2-B7 cells loaded with optimized or native peptides, IFNγ staining or ELISPOT) | Immunogenicity against native peptide MAGE-A1_269 (positive culture/total cultures) ([1]; human PBMC stimulated with optimized peptide, targets loaded with MAGE-A1_269 as printed) | Immunogenicity against native peptide MAGE-A2_274 (positive culture/total cultures) ([1]; human PBMC stimulated with optimized peptide, targets loaded with MAGE-A2_274) | Immunogenicity against native peptide MAGE-A3_274 (positive culture/total cultures) ([1]; human PBMC stimulated with optimized peptide, targets loaded with MAGE-A3_274) | Immunogenicity against native peptide (responding mice/vaccinated mice) ([2]; mice vaccinated twice with the optimized peptide, target cells loaded with the corresponding native peptide)
1 | APRRLVQLL [TERT444A1, optimized TERT444, alanine at position 1] | 1.4 ± 0.83 | high HLA-B*0702 affinity | confirmed | 1/2 | 2/2 | – | – | – | – | – | – | – | – | – | – | – | –
2 | GPRALVETL [MAGE-A274 L9, optimized peptide derived from MAGE-A3_274, leucine at position 9] | – | – | confirmed | 2/4 | – | able to recognize target cells loaded with MAGE-A3_274 but also MAGE-A1_267 and MAGE-A2_274 | 3023 /10^6 cells | 18/18 | 3/8 | 3/5 | 4/5 | immunogenic | cross recognition of MAGE-A3_274 and MAGE-A2_274 was confirmed but not for MAGE-A1_267 | 0/4 | 2/4 | 2/4 | –
3 | SPRLQLSNL [CEA188L9, optimized CEA188 modified at last position by a leucine] | – | – | confirmed | 1/3 | 2/3 | able to recognize target cells loaded with their corresponding native peptide | – | 6/6 | – | – | – | immunogenic | – | – | – | – | 6/6
